Data on 23 compounds can be found in patent publication US20240166660A1, “KRAS G12C INHIBITORS” (BeiGene Switzerland GmbH, priority 2021, published 2024).

The target of the assay is KRAS (aa 1-169) G12C, C51S, C80L, C118S (Homo sapiens (Human), UniProt P01116, C118S/C51S/C80L/G12C). As to the kind of experiment: Biochemical functional assay: SOS1-mediated nucleotide exchange of GDP-loaded KRAS G12C, binding to GST-cRaf RBD, FRET readout. To be noted: 3 hrs pre-incubation with compound at 24° C., SOS1, GTPyS. In a few lines: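 GDP-loaded His-tagged KRAS construct preincubated with compound 3 h at 24° C in 25 mM HEPES pH7.5, 10 mM MgCl2, 0.01% Triton X-100; SOS1 (aa 564-1049), GTPγS and GST-cRaf RBD added for 3 h, then anti-His Tb cryptate/anti-GST XL665 for 3 h. HTRF 665/620 ratio; IC50 by four-parameter logistic fit.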

Where [1] appears, read: inhibition of nucleotide exchange.

Chain of KRAS (aa 1-169) G12C, C51S, C80L, C118S (P01116 other isoform, or with tags, fused parts or gaps G12C/C51S/C80L/C118S): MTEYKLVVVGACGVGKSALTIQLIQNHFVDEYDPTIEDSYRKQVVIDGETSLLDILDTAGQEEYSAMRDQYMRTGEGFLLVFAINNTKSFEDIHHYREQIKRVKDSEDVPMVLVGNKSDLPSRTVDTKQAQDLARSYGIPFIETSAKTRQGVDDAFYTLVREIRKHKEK

As a reminder, the IC50 is the concentration at which inhibition is half-maximal. `C=CC(=O)N1CCN(c2nc(N3CC(N(C)C)C3)nc3cc(-c4ccccc4F)c4c(c23)OCCC4)CC1` [Compound B16, 1-(4-(8-(3-(dimethylamino)azetidin-1-yl)-5-(2-fluorophenyl)-3,4-dihydro-2H-pyrano[2,3-f]quinazolin-10-yl)piperazin-1-yl)prop-2-en-1-one]: where the note is “bound in uM”, the concentration for half-maximal inhibition (IC50) was over 10 µM.

In the case of `C=CC(=O)N1CCN(c2nc(N3CC(N(C)C)C3)nc3cc(-c4cccc(Cl)c4)c4c(c23)OCCC4)CC1` [Compound B17, 1-(4-(5-(3-chlorophenyl)-8-(3-(dimethylamino)azetidin-1-yl)-3,4-dihydro-2H-pyrano[2,3-f]quinazolin-10-yl)piperazin-1-yl)prop-2-en-1-one], the IC50 (bound in uM) is over 10 µM.

`C=CC(=O)N1CCN(c2nc(N3CC(N(C)C)C3)nc3cc(-c4ccccc4C)c4c(c23)OCCC4)CC1` [Compound B18, 1-(4-(8-(3-(dimethylamino)azetidin-1-yl)-5-(o-tolyl)-3,4-dihydro-2H-pyrano[2,3-f]quinazolin-10-yl)piperazin-1-yl)prop-2-en-1-one]: the IC50 (bound in uM) is over 10 µM.

`C=CC(=O)N1CCN(c2nc(N3CC(N(C)C)C3)nc3cc(-c4ccccc4C#N)c4c(c23)OCCC4)CC1` [Compound B19, 2-(10-(4-acryloylpiperazin-1-yl)-8-(3-(dimethylamino)azetidin-1-yl)-3,4-dihydro-2H-pyrano[2,3-f]quinazolin-5-yl)benzonitrile]: the IC50 (bound in uM) is over 10 µM.

Take `C=C(F)C(=O)N1CCN(c2nc(OC[C@@H]3C[C@@H](OC)CN3C)nc3cc(-c4cccc5cccc(Cl)c45)c4ccoc4c23)C[C@@H]1CC#N` [Compound B20, 2-((S)-4-(4-(8-chloronaphthalen-1-yl)-7-(((2S,4R)-4-methoxy-1-methylpyrrolidin-2-yl)methoxy)furo[2,3-f]quinazolin-9-yl)-1-(2-fluoroacryloyl)piperazin-2-yl)acetonitrile]: under setting [1], the IC50 turned out to be 0.016 µM.

Regarding `C=CC(=O)N1CCN(c2nc(N3CC(N(C)C)C3)nc3cc(-c4ccccc4Cl)c4c(c23)OCCC4)CC1` [Compound B21, 1-(4-(5-(2-chlorophenyl)-8-(3-(dimethylamino)azetidin-1-yl)-3,4-dihydro-2H-pyrano[2,3-f]quinazolin-10-yl)piperazin-1-yl)prop-2-en-1-one], the half-inhibitory concentration (IC50) (bound in uM) was over 10 µM.

Regarding `C=CC(=O)N1CCN(c2nc(N3CC(N(C)C)C3)nc3cc(-c4ccccc4C(F)(F)F)c4c(c23)OCCC4)CC1` [Compound B22, 1-(4-(8-(3-(dimethylamino)azetidin-1-yl)-5-(2-(trifluoromethyl)phenyl)-3,4-dihydro-2H-pyrano[2,3-f]quinazolin-10-yl)piperazin-1-yl)prop-2-en-1-one], the IC50 under setting [1] was determined as 0.568 µM.

As for `C=CC(=O)N1CCN(c2nc(N(C)CCN(C)C)nc3cc(-c4cccc5cccc(Cl)c45)c4c(c23)OCCC4)CC1` [Compound B23, 1-(4-(5-(8-chloronaphthalen-1-yl)-8-((2-(dimethylamino)ethyl)(methyl)amino)-3,4-dihydro-2H-pyrano[2,3-f]quinazolin-10-yl)piperazin-1-yl)prop-2-en-1-one], the 50% inhibitory concentration (IC50) under setting [1] turned out to be 0.202 µM.

On to `C=CC(=O)N1CCN(c2nc(N3CCN(C)CC3)nc3cc(-c4cccc5cccc(Cl)c45)c4c(c23)OCCC4)CC1` [Compound B24, 1-(4-(5-(8-chloronaphthalen-1-yl)-8-(4-methylpiperazin-1-yl)-3,4-dihydro-2H-pyrano[2,3-f]quinazolin-10-yl)piperazin-1-yl)prop-2-en-1-one], for which the half-inhibitory concentration (IC50) (bound in uM) was over 10 µM.

As to `C=CC(=O)N1CCN(c2nc(N3CCC(N(C)C)C3)nc3cc(-c4c(Cl)c(C)cc5[nH]ncc45)c4c(c23)OCCC4)CC1` (centres unmarked) [Compound B25, 1-(4-(5-(5-chloro-6-methyl-1H-indazol-4-yl)-8-(3-(dimethylamino)pyrrolidin-1-yl)-3,4-dihydro-2H-pyrano[2,3-f]quinazolin-10-yl)piperazin-1-yl)prop-2-en-1-one], the IC50 under setting [1] turned out to be 0.138 µM.

Regarding `C=CC(=O)N1CCN(c2nc(N3CC(CN(C)C)C3)nc3cc(-c4cccc5cccc(Cl)c45)c4c(c23)OCCC4)CC1` [Compound B26, 1-(4-(5-(8-chloronaphthalen-1-yl)-8-(3-((dimethylamino)methyl)azetidin-1-yl)-3,4-dihydro-2H-pyrano[2,3-f]quinazolin-10-yl)piperazin-1-yl)prop-2-en-1-one], under setting [1], the half-inhibitory concentration (IC50) came out at 0.239 µM.

On to `C=CC(=O)N1CCN(c2nc(OC[C@@H]3C[C@@H](F)CN3C)nc3cc(N4CCCc5ccccc54)c4c(c23)OCCC4)CC1` [Compound B27, 1-(4-(5-(3,4-dihydroquinolin-1(2H)-yl)-8-(((2S,4R)-4-fluoro-1-methylpyrrolidin-2-yl)methoxy)-3,4-dihydro-2H-pyrano[2,3-f]quinazolin-10-yl)piperazin-1-yl)prop-2-en-1-one], for which the IC50 under setting [1] stood at 0.321 µM.

For the compound `C=CC(=O)N1CCN(c2nc(OC[C@@H]3CCCN3C)nc3cc(-c4c(Cl)c(C)cc5[nH]ncc45)c4c(c23)OCC4)CC1` [Compound B28, 1-(4-(4-(5-chloro-6-methyl-1H-indazol-4-yl)-7-(((S)-1-methylpyrrolidin-2-yl)methoxy)-2,3-dihydrofuro[2,3-f]quinazolin-9-yl)piperazin-1-yl)prop-2-en-1-one], the IC50 under setting [1] is 0.113 µM.

As for `C=C(F)C(=O)N1CCN(c2nc(OC[C@@H]3CCCN3C)nc3cc(-c4ccc(F)c5sc(N)nc45)c4c(c23)OCCC4)C[C@@H]1CC#N` [Compound B29, 2-((S)-4-(5-(2-amino-7-fluorobenzo[d]thiazol-4-yl)-8-(((S)-1-methylpyrrolidin-2-yl)methoxy)-3,4-dihydro-2H-pyrano[2,3-f]quinazolin-10-yl)-1-(2-fluoroacryloyl)piperazin-2-yl)acetonitrile], under setting [1], the IC50 is 0.00451 µM.

Turning to `C=C(F)C(=O)N1CCN(c2nc(OC[C@@H]3CCCN3C)nc3cc(-c4c(Cl)c(C)cc5[nH]ncc45)c4c(c23)OCC4)C[C@@H]1CC#N` [Compound B30, 2-((2S)-4-(4-(5-chloro-6-methyl-1H-indazol-4-yl)-7-(((S)-1-methylpyrrolidin-2-yl)methoxy)-2,3-dihydrofuro[2,3-f]quinazolin-9-yl)-1-(2-fluoroacryloyl)piperazin-2-yl)acetonitrile], under setting [1], the half-inhibitory concentration (IC50) worked out at 0.0096 µM.

`C=C(F)C(=O)N1CCN(c2nc(OC[C@@H]3CCCN3C)nc3cc(-c4ccccc4F)c4c(c23)OCCC4)C[C@@H]1CC#N` [Compound B31, 2-((S)-1-(2-fluoroacryloyl)-4-(5-(2-fluorophenyl)-8-(((S)-1-methylpyrrolidin-2-yl)methoxy)-3,4-dihydro-2H-pyrano[2,3-f]quinazolin-10-yl)piperazin-2-yl)acetonitrile]: the IC50 under setting [1] was found to be 0.984 µM.

In the case of `C=C(F)C(=O)N1CCN(c2nc(OC[C@@H]3CCCN3C)nc3cc(-c4ccccc4C4CC4)c4c(c23)OCCC4)C[C@@H]1CC#N` [Compound B32, 2-((S)-4-(5-(2-cyclopropylphenyl)-8-(((S)-1-methylpyrrolidin-2-yl)methoxy)-3,4-dihydro-2H-pyrano[2,3-f]quinazolin-10-yl)-1-(2-fluoroacryloyl)piperazin-2-yl)acetonitrile], the half-maximal inhibitory concentration (IC50) under setting [1] came to 0.226 µM.

With `C=C(F)C(=O)N1CCN(c2nc(OC[C@@H]3CCCN3C)nc3cc(-c4ccccc4C(F)(F)F)c4c(c23)OCCC4)C[C@@H]1CC#N` [Compound B33, 2-((S)-1-(2-fluoroacryloyl)-4-(8-(((S)-1-methylpyrrolidin-2-yl)methoxy)-5-(2-(trifluoromethyl)phenyl)-3,4-dihydro-2H-pyrano[2,3-f]quinazolin-10-yl)piperazin-2-yl)acetonitrile], the 50% inhibitory concentration (IC50) under setting [1] was 0.051 µM.

For `C=CC(=O)N1CCN(c2nc(OC[C@@H]3CCCN3C)nc3cc(-c4c(Cl)c(C)cc5[nH]ncc45)c4ccoc4c23)CC1` [Compound B34, 1-(4-(4-(5-chloro-6-methyl-1H-indazol-4-yl)-7-(((S)-1-methylpyrrolidin-2-yl)methoxy)furo[2,3-f]quinazolin-9-yl)piperazin-1-yl)prop-2-en-1-one], under setting [1], the 50% inhibitory concentration (IC50) came to 0.065 µM.

Regarding `C=C(F)C(=O)N1CCN(c2nc(OC[C@@H]3CCCN3C)nc3cc(-c4c(Cl)c(C)cc5[nH]ncc45)c4ccoc4c23)C[C@@H]1CC#N` [Compound B35, 2-((2S)-4-(4-(5-chloro-6-methyl-1H-indazol-4-yl)-7-(((S)-1-methylpyrrolidin-2-yl)methoxy)furo[2,3-f]quinazolin-9-yl)-1-(2-fluoroacryloyl)piperazin-2-yl)acetonitrile], the 50% inhibitory concentration (IC50) under setting [1] was determined as 0.0084 µM.

Turning to `C=C(F)C(=O)N1CCN(c2nc(OC[C@@H]3CCCN3C)nc3cc(-c4c(Cl)c(Cl)cc5[nH]ncc45)c4c(c23)OCCC4)C[C@@H]1CC#N` [Compound B36, 2-((2S)-4-(5-(5,6-dichloro-1H-indazol-4-yl)-8-(((S)-1-methylpyrrolidin-2-yl)methoxy)-3,4-dihydro-2H-pyrano[2,3-f]quinazolin-10-yl)-1-(2-fluoroacryloyl)piperazin-2-yl)acetonitrile], the IC50 under setting [1] was 0.047 µM.

Turning to `C=C(F)C(=O)N1CCN(c2nc(OC[C@@H]3CCCN3C)nc3cc(-c4cccc5cccc(F)c45)c4c(c23)OCCC4)C[C@@H]1CC#N` [Compound B37, 2-((S)-1-(2-fluoroacryloyl)-4-(5-(8-fluoronaphthalen-1-yl)-8-(((S)-1-methylpyrrolidin-2-yl)methoxy)-3,4-dihydro-2H-pyrano[2,3-f]quinazolin-10-yl)piperazin-2-yl)acetonitrile], the IC50 under setting [1] was 0.008 µM.

For the compound `C=C(F)C(=O)N1CCN(c2nc(OC[C@@H]3CCCN3C)nc3cc(-c4c(F)cccc4F)c4ccoc4c23)C[C@@H]1CC#N` [Compound B38, 2-((S)-4-(4-(2,6-difluorophenyl)-7-(((S)-1-methylpyrrolidin-2-yl)methoxy)furo[2,3-f]quinazolin-9-yl)-1-(2-fluoroacryloyl)piperazin-2-yl)acetonitrile], the IC50 under setting [1] is 0.913 µM.
